What was measured:
ICR mice = test: Acute toxicity in mice; assay type: in vivo; conditions: 5-week-old ICR mice, 14 days observation, LD50 could not be calculated
Procedure: (§1) Five-week-old ICR mice and 5-week-old Spraque-Dawley rats were used in groups of 10 males and 10 females, and suspensions of compound A or B in olive oil were administered orally [2,500, 5,000 and 10,000 mg/kg of each compound] or subcutaneously (1,250, 2,500 and 5,000 mg/kg). The animals were kept under observation for 14 days.

[1] = system: young oophorectomized rats; test: E activity-potentiating effect in young oophorectomized rats (uterine wet weight); assay type: in vivo, Spraque-Dawley rats; conditions: 3 days; for increase of uterine weight by the compound alone: without estrone; for Uterine wet weight (mg ± S.D.): autopsy on 4th day
Procedure: Spraque-Dawley rats, 33 days of age and 11 days after oophorectomy for elimination of endogenous E activity, were assigned to groups of 5 to 7 individuals and treated subcutaneously with solutions of esterone in sesame oil or orally with suspensions of Compound A in 1% hydroxypropylcellulose solution, either independently or in combination, for 3 days. On the 4th day, each animal was autopsied and its uterine wet weight was recorded. […] Spraque-Dawley rats, 33 days of age and 11 days after oophorectomy for elimination of endogenous E activity, were assigned to groups of 5 to 7 individuals and treated subcutaneously with solutions of esterone in sesame oil or orally with suspensions of Compound B in 1% hydroxypropylcellulose solution, either independently or in combination, for 3 days. On the 4th day, each animal was autopsied and its uterine wet weight was recorded.

Spraque-Dawley rats = test: Acute toxicity in rats; assay type: in vivo; conditions: 5-week-old Spraque-Dawley rats, 14 days observation, LD50 could not be calculated
Procedure: as §1

[2] = oral 2,500, 5,000 and 10,000 mg/kg in olive oil
[3] = subcutaneous 1,250, 2,500 and 5,000 mg/kg in olive oil

## CC(C)Oc1ccc2c(=O)c(-c3ccccc3)coc2c1 [Compound B, 7-isopropyloxy-isoflavone]
ICR mice; [2]
  deaths and toxic symptoms (acute toxicity): None of the groups showed deaths nor toxic symptoms
ICR mice; [3]
  deaths and toxic symptoms (acute toxicity): None of the groups showed deaths nor toxic symptoms
[1]; Compound B at 50 and 200 mg/kg oral with estrone subcutaneous
  potentiation of the uterine weight increasing action of estrone: potentiated the uterine weight increasing action of estrone
[1]; Compound B at 50 and 200 mg/kg oral
  increase of uterine weight by the compound alone: did not cause an increase of uterine weight
[1]; Table 2, Compound B 50 mg/kg daily oral, estrone 0
  Uterine wet weight (mg ± S.D.): 32.2 ± 1.3 mg
[1]; Table 2, Compound B 200 mg/kg daily oral, estrone 0
  Uterine wet weight (mg ± S.D.): 34.7 ± 1.2 mg
[1]; Table 2, estrone 0.5 µg/kg daily subcutaneous + Compound B 50 mg/kg daily oral
  Uterine wet weight (mg ± S.D.): 39.6 ± 2.4 mg
[1]; Table 2, estrone 0.5 µg/kg daily subcutaneous + Compound B 200 mg/kg daily oral
  Uterine wet weight (mg ± S.D.): 51.3 ± 5.3 mg
[1]; Table 2, estrone 1.0 µg/kg daily subcutaneous + Compound B 50 mg/kg daily oral
  Uterine wet weight (mg ± S.D.): 58.2 ± 2.6 mg
[1]; Table 2, estrone 1.0 µg/kg daily subcutaneous + Compound B 200 mg/kg daily oral
  Uterine wet weight (mg ± S.D.): 71.5 ± 7.4^+ mg
Spraque-Dawley rats; [2]
  deaths and toxic symptoms (acute toxicity): None of the groups showed deaths nor toxic symptoms
Spraque-Dawley rats; [3]
  deaths and toxic symptoms (acute toxicity): None of the groups showed deaths nor toxic symptoms

## O=c1c(-c2ccccc2)coc2cc(O)ccc12 [Compound A, 7-hydroxy-isoflavone]
[1]; Compound A at 50 and 100 mg/kg oral with estrone subcutaneous
  potentiation of the uterine weight increasing action of estrone: potentiated the uterine weight increasing action of estrone
[1]; Compound A at 50 and 100 mg/kg oral
  increase of uterine weight by the compound alone: did not cause an increase of uterine weight
[1]; Table 1, Compound A 50 mg/kg daily oral, estrone 0
  Uterine wet weight (mg ± S.D.): 35.3 ± 1.7 mg
[1]; Table 1, Compound A 100 mg/kg daily oral, estrone 0
  Uterine wet weight (mg ± S.D.): 35.9 ± 1.0 mg
[1]; Table 1, estrone 1.0 µg/kg daily subcutaneous + Compound A 50 mg/kg daily oral
  Uterine wet weight (mg ± S.D.): 60.8 ± 4.1 mg
[1]; Table 1, estrone 1.0 µg/kg daily subcutaneous + Compound A 100 mg/kg daily oral
  Uterine wet weight (mg ± S.D.): 70.6 ± 2.7 mg

## C[C@]12CC[C@@H]3c4ccc(O)cc4CC[C@H]3[C@@H]1CCC2=O [estrone, reference compound]
[1]; Table 1, estrone 1.0 µg/kg daily subcutaneous alone (Compound A 0)
  Uterine wet weight (mg ± S.D.): 52.6 ± 2.3 mg
[1]; Table 2, estrone 0.5 µg/kg daily subcutaneous alone (Compound B 0)
  Uterine wet weight (mg ± S.D.): 36.3 ± 1.9 mg
[1]; Table 2, estrone 1.0 µg/kg daily subcutaneous alone (Compound B 0)
  Uterine wet weight (mg ± S.D.): 51.9 ± 4.2 mg
